Source: patent US10370379B2, “Compounds and compositions useful for treating disorders related to NTRK” (BLUEPRINT MEDICINES CORPORATION, priority 2015, dated 2019)
Like-named read-outs stand apart in the source and are kept apart here. Values belong to the compound of their own block, whether it stands above or below them.

How the values were obtained:
[1] = tested on: KM12 Cliff (G595R) cell line; assay: NTRK G595R mutant cellular assay (KM12 Cliff, CellTiter-Glo); type: cell-based; details: for IC50: Homo sapiens, KM12 Cliff (G595R) cells, 72 hr, CellTiter-Glo
Experimental: (§1) NTRK Wild Type and G595R Mutant Cellular Assays Protocol
(§2) KM12 wild type colon carcinoma cell line harboring the TPM3-NTRK1 fusion protein was obtained from the National Cancer Institute (NCI). This line has been previously shown to be dependent upon the NTRK activity derived from the NTRK fusion protein for growth and survival. […] Cells were first plated in 384-well plates at 1000 cells/well in complete media (10% FBS and 1% pen/strep) and incubated overnight at 37° C. Cells were then dosed with test articles at varying concentrations using the Bravo liquid handling system. […] Each compound was run in duplicate per plate. […] 72 hr after dosing, assay plates were developed using CellTiter-Glo (Promega) and resultant luminescence was read on the Envision plate reader. IC50 determinations were calculated using a 4-parameter curve fitting algorithm

wild type NTRK1 enzyme = wild type NTRK1 enzyme (Homo sapiens (Human), UniProt P04629); assay: NTRK1 Wild Type Assay at 1 mM ATP; type: biochemical
Experimental: NTRK1 Wild Type Assay at 1 mM ATP
The reaction was stopped by the addition of 70 μL of Stop buffer (100 mM HEPES pH 7.5, 0.015% Brij 35, 35 mM EDTA and 0.2% of Coating Reagent 3 (Caliper Lifesciences)). The plate was then read on a Caliper EZReader 2 (protocol settings: −1.7 psi, upstream voltage −500, downstream voltage −3000, post sample sip 35 s).

[2] = tested on: KM12 wild type colon carcinoma cell line harboring the TPM3-NTRK1 fusion protein; assay: NTRK wild type cellular assay (KM12, CellTiter-Glo); type: cell-based; details: for IC50: KM12 wild type cells, 72 hr, CellTiter-Glo; for GI50: NTRK wt cellular, known NTRK inhibitors
Experimental: as §1, §2

[3] = wild type NTRK1, 1 mM ATP, read-out: NTRK1 IC50

Chain of wild type NTRK1 enzyme (P04629 33-796): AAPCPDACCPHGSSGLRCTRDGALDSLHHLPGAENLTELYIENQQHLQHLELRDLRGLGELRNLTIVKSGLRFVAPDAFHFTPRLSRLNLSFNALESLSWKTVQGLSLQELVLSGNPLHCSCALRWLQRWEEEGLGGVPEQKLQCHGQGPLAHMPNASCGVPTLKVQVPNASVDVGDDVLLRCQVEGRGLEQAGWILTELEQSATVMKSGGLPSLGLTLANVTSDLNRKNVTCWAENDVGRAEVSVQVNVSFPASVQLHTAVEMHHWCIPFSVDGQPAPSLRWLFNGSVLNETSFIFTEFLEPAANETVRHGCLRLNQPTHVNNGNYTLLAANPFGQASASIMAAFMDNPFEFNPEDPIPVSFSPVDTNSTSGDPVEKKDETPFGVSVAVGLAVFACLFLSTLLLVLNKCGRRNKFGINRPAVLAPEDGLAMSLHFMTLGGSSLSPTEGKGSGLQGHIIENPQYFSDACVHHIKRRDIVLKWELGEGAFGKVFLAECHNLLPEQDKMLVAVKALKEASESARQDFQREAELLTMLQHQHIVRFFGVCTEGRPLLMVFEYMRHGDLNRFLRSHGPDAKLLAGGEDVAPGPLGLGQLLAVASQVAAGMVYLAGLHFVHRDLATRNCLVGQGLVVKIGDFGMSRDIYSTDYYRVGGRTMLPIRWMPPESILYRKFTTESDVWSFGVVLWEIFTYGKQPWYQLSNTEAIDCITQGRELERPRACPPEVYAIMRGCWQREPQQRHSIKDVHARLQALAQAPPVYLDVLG

Structure (SMILES): N#Cc1cnn2ccc(N3CC(F)(F)C[C@@H]3c3cncc(F)c3)nc12 [Compound 3, (R)-5-(4,4-difluoro-2-(5-fluoropyridin-3-yl)pyrrolidin-1-yl)pyrazolo[1,5-a]pyrimidine-3-carbonitrile]
IC50 [1]: 100 to 1000 nM | IC50 (wild type NTRK1 enzyme; [3]): 10 to 100 nM | IC50 ([2]; Homo sapiens): 10 to 100 nM

Structure (SMILES): N#Cc1cnn2ccc(N3C[C@@H](C#N)C[C@@H]3c3cc(F)ccc3F)nc12 [Compound 5, 5-((2R,4S)-4-cyano-2-(2,5-difluorophenyl)pyrrolidin-1-yl)pyrazolo[1,5-a]pyrimidine-3-carbonitrile]
IC50 [1]: 100 to 1000 nM | IC50 (wild type NTRK1 enzyme; [3]): 10 to 100 nM | IC50 ([2]; Homo sapiens): 10 to 100 nM

Structure (SMILES): Cn1cc(F)cc([C@H]2C[C@H](F)CN2c2ccn3ncc(C#N)c3n2)c1=O [Compound 8, 5-((2R,4S)-4-fluoro-2-(5-fluoro-1-methyl-2-oxo-1,2-dihydropyridin-3-yl)pyrrolidin-1-yl)pyrazolo[1,5-a]pyrimidine-3-carbonitrile]
IC50 [1]: 100 to 1000 nM | IC50 (wild type NTRK1 enzyme; [3]): 10 to 100 nM | IC50 ([2]; Homo sapiens): 10 to 100 nM

Structure (SMILES): N#Cc1cnn2ccc(N3C[C@@H](F)C[C@@H]3c3cc(F)cc(C(N)=O)c3)nc12 [Compound 11]
IC50 [1]: 10 to 100 nM | IC50 (wild type NTRK1 enzyme; [3]): < 10 nM | IC50 ([2]; Homo sapiens): < 10 nM

Structure (SMILES): N#Cc1cc(F)cc([C@H]2C[C@H](F)CN2c2nc3c(C#N)cnn3cc2F)c1 [Compound 12]
IC50 [1]: < 10 nM | IC50 (wild type NTRK1 enzyme; [3]): < 10 nM | IC50 ([2]; Homo sapiens): < 10 nM

Structure (SMILES): COc1c(F)cc(F)cc1[C@H]1C[C@H](F)CN1c1ccn2ncc(C#N)c2n1 [Compound 13]
IC50 [1]: < 10 nM | IC50 (wild type NTRK1 enzyme; [3]): < 10 nM | IC50 ([2]; Homo sapiens): < 10 nM

Structure (SMILES): CC(C)(O)c1cc(F)cc([C@H]2C[C@H](F)CN2c2ccn3ncc(C#N)c3n2)c1 [Compound 14, 5-((2R,4S)-4-fluoro-2-(3-fluoro-5-(2-hydroxypropan-2-yl)phenyl)pyrrolidin-1-yl)pyrazolo[1,5-a]pyrimidine-3-carbonitrile]
IC50 [1]: 100 to 1000 nM | IC50 (wild type NTRK1 enzyme; [3]): 10 to 100 nM | IC50 ([2]; Homo sapiens): 10 to 100 nM

Structure (SMILES): N#Cc1cnn2cc(F)c(N3C[C@@H](F)C[C@@H]3c3cc(F)cc(C(N)=O)c3)nc12 [Compound 15]
IC50 [1]: 10 to 100 nM | IC50 (wild type NTRK1 enzyme; [3]): < 10 nM | IC50 ([2]; Homo sapiens): 10 to 100 nM

Structure (SMILES): N#Cc1cnn2ccc(N3C[C@@H](F)C[C@@H]3c3cc(F)cc(S(N)(=O)=O)c3)nc12 [Compound 16]
IC50 [1]: 10 to 100 nM | IC50 (wild type NTRK1 enzyme; [3]): < 10 nM | IC50 ([2]; Homo sapiens): 10 to 100 nM

Structure (SMILES): N#Cc1cnn2ccc(N3C[C@@H](F)C[C@@H]3c3cc(F)ccc3OC(F)(F)F)nc12 [Compound 17]
IC50 [1]: < 10 nM | IC50 (wild type NTRK1 enzyme; [3]): < 10 nM | IC50 ([2]; Homo sapiens): < 10 nM

Structure (SMILES): N#Cc1cnn2ccc(N3C[C@@H](F)C[C@@H]3c3cc(F)cc(C(=O)NCCO)c3)nc12 [Compound 18]
IC50 [1]: 10 to 100 nM | IC50 (wild type NTRK1 enzyme; [3]): 10 to 100 nM | IC50 ([2]; Homo sapiens): 10 to 100 nM

Structure (SMILES): N#Cc1cnn2ccc(N3C[C@@H](F)C[C@@H]3c3cc(F)cc(C(=O)NCC4CC4)c3)nc12 [Compound 19]
IC50 [1]: 10 to 100 nM | IC50 (wild type NTRK1 enzyme; [3]): < 10 nM | IC50 ([2]; Homo sapiens): 10 to 100 nM

Structure (SMILES): CNC(=O)c1cc(F)cc([C@H]2C[C@H](F)CN2c2ccn3ncc(C#N)c3n2)c1 [Compound 20, 3-((2R,4S)-1-(3-cyanopyrazolo[1,5-a]pyrimidin-5-yl)-4-fluoropyrrolidin-2-yl)-5-fluoro-N-methylbenzamide]
IC50 [1]: 10 to 100 nM | IC50 (wild type NTRK1 enzyme; [3]): 10 to 100 nM | IC50 ([2]; Homo sapiens): 10 to 100 nM

Structure (SMILES): CN(C)C(=O)c1cc(F)cc([C@H]2C[C@H](F)CN2c2ccn3ncc(C#N)c3n2)c1 [Compound 21]
IC50 [1]: 100 to 1000 nM | IC50 (wild type NTRK1 enzyme; [3]): 10 to 100 nM | IC50 ([2]; Homo sapiens): 10 to 100 nM

Structure (SMILES): N#Cc1cnn2ccc(N3C[C@@H](F)C[C@@H]3c3cc(F)ccc3C(N)=O)nc12 [Compound 22, 2-((2R,4S)-1-(3-cyanopyrazolo[1,5-a]pyrimidin-5-yl)-4-fluoropyrrolidin-2-yl)-4-fluorobenzamide]
IC50 [1]: 100 to 1000 nM | IC50 (wild type NTRK1 enzyme; [3]): 10 to 100 nM | IC50 ([2]; Homo sapiens): 10 to 100 nM

Structure (SMILES): C[C@@H](Oc1cc(-c2cnn(C3CCNCC3)c2)cnc1N)c1c(Cl)ccc(F)c1Cl [Crizotinib, reference compound]
GI50 ([2]; Homo sapiens, KM12): 87 nM

Structure (SMILES): CC(C)NC(=O)[C@H]1CC[C@@H](n2c(NC(=O)c3ccc(F)cc3)nc3ccc(CN4CCC(C(C)(C)O)CC4)cc32)CC1 [TSR-011, reference compound]
GI50 ([1]; NTRK G595R cellular, known NTRK inhibitors): 12000 nM | IC50 (wild type NTRK1 enzyme; NTRK wt, known NTRK inhibitors, read-out: NTRK wt Enzyme Assay IC50): 2.3 nM | GI50 [2]: 32 nM

Second part, led by results:

IC50 (wild type NTRK1 enzyme; [3]): < 10 nM | IC50 ([2]; Homo sapiens): < 10 nM
Structure (SMILES): N#Cc1cnn2ccc(N3C[C@@H](F)C[C@@H]3c3cncc(F)c3)nc12 [Compound 1, 5-((2R,4S)-4-fluoro-2-(5-fluoropyridin-3-yl)pyrrolidin-1-yl)pyrazolo[1,5-a]pyrimidine-3-carbonitrile]
IC50 [1]: 10 to 100 nM

IC50 (wild type NTRK1 enzyme; [3]): < 10 nM | IC50 ([2]; Homo sapiens): < 10 nM
Structure (SMILES): N#Cc1cnn2ccc(N3C[C@@H](F)C[C@@H]3c3cc(F)ccc3F)nc12 [Compound 2]
IC50 [1]: < 10 nM

IC50 (wild type NTRK1 enzyme; [3]): < 10 nM | IC50 ([2]; Homo sapiens): < 10 nM
Structure (SMILES): N#Cc1cnn2cc(F)c(N3C[C@@H](F)C[C@@H]3c3cncc(F)c3)nc12 [Compound 4, 6-fluoro-5-((2R,4S)-4-fluoro-2-(5-fluoropyridin-3-yl)pyrrolidin-1-yl)pyrazolo[1,5-a]pyrimidine-3-carbonitrile]
IC50 [1]: < 10 nM

IC50 (wild type NTRK1 enzyme; [3]): < 10 nM | IC50 ([2]; Homo sapiens): < 10 nM
Structure (SMILES): N#Cc1cc(F)cc([C@H]2C[C@H](F)CN2c2ccn3ncc(C#N)c3n2)c1 [Compound 6, 5-((2R,4S)-2-(3-cyano-5-fluorophenyl)-4-fluoropyrrolidin-1-yl)pyrazolo[1,5-a]pyrimidine-3-carbonitrile]
IC50 [1]: < 10 nM

IC50 (wild type NTRK1 enzyme; [3]): < 10 nM | IC50 ([2]; Homo sapiens): < 10 nM
Structure (SMILES): COc1ncc(F)cc1[C@H]1C[C@H](F)CN1c1ccn2ncc(C#N)c2n1 [Compound 7, 5-((2R,4S)-4-fluoro-2-(5-fluoro-2-methoxypyridin-3-yl)pyrrolidin-1-yl)pyrazolo[1,5-a]pyrimidine-3-carbonitrile]
IC50 [1]: < 10 nM

IC50 (wild type NTRK1 enzyme; [3]): < 10 nM | IC50 ([2]; Homo sapiens): < 10 nM
Structure (SMILES): N#Cc1cnn2ccc(N3C[C@@H](F)C[C@@H]3c3cc(F)cc(Cl)c3)nc12 [Compound 9]
IC50 [1]: < 10 nM

IC50 (wild type NTRK1 enzyme; [3]): < 10 nM | IC50 ([2]; Homo sapiens): < 10 nM
Structure (SMILES): N#Cc1cnn2ccc(N3C[C@@H](F)C[C@@H]3c3cc(F)cnc3Cl)nc12 [Compound 10]
IC50 [1]: < 10 nM
